The target of data set [1] is T1, Nav1.7 (or SCN9A) channel (Homo sapiens, UniProt Q15858).
T1 construct: expressed in transfected cells
The experiment in a line: Nav1.7 (hSCN9A) channel block, PatchXpress (PX) whole-cell electrophysiology in stably transfected HEK cells. The format is cell-based. Particulars: for IC50: estimated IC50 from single point electrophysiology data, PatchXpress platform, HEK cells expressing hSCN9A, clamped at V1/2 of inactivation, read-out: Nav1.7 EIC50. The protocol:
The ability of the compounds of formula (I) to block the Nav1.7 (or SCN9A) channel was measured using the assay described below.
Human Embryonic Kidney (HEK) cells were transfected with an hSCN9A construct using lipofectamine reagent (Invitrogen), using standard techniques. Cells stably expressing the hSCN9A constructs were identified by their resistance to G-418 (400 μg/ml). Clones were screened for expression using the whole-cell voltage-clamp technique.
HEK cells stably transfected with hSCN9A were maintained in DMEM medium supplemented with 10% heat-inactivated fetal bovine serum and 400 μg/ml G-418 in an incubator at 37° C. with a humidified atmosphere of 10% CO2. For HTS, cells were harvested from flasks by trypsinization and replated in an appropriate multi-well plate (typically 96 or 384 wells/plate) such that confluence would be achieved within 24 hours of plating. Cells were typically used for electrophysiological experiments within 24 to 72 hours after plating.
For conventional whole-cell voltage clamp experiments cells were removed from the culture flask by brief trypsinization and re-plated at low density onto glass cover slips. Cover slips containing HEK cells expressing hSCN9A were placed in a bath on the stage of an inverted microscope and perfused (approximately 1 ml/minutes) with extracellular solution of the following composition: 138 mM NaCl, 2 mM CaCl2, 5.4 mM KCl, 1 mM MgCl2, 10 mM glucose, and 10 mM HEPES, pH 7.4, with NaOH. […] The osmolarity of the extracellular and intracellular solutions was 300 mOsm/kg and 295 mOsm/kg, respectively. All recordings were made at room temperature (22-24° C.) using AXOPATCH 200B amplifiers and PCLAMP software (Axon Instruments, Burlingame, Calif.). hSCN9A currents in HEK cells were measured using the whole-cell configuration of the patch-clamp technique (Hamill et al., 1981). Uncompensated series resistance was typically 2 to 5 mega ohms and >85% series resistance compensation was routinely achieved. […] Current records were acquired at 20 to 50 KHz and filtered at 5 to 10 KHz.
HEK cells stably transfected with hSCN9A were viewed under Hoffman contrast optics and placed in front of an array of flow pipes emitting either control or compound-containing extracellular solutions.
The voltage-dependence of inactivation was determined by applying a series of depolarizing prepulses (8 sec long in 10 mV increments) from a negative holding potential. The voltage was then immediately stepped to 0 mV to assess the magnitude of the sodium current. Currents elicited at 0 mV were plotted as a function of prepulse potential to allow estimation of the voltage at which 50% of the channels were inactivated (midpoint of inactivation or V1/2). Compounds were tested for their ability to inhibit hSCN9A sodium channels by activating the channel with a 20 msec voltage step […] to 0 mV following an 8 second conditioning prepulse to the empirically determined V1/2. Compound effect (% inhibition) was determined by difference in current amplitude before and after application of test compounds. For ease of comparison, “estimated IC-50” (EIC50) values were calculated from single point electrophysiology data by the following equation, (tested concentration, nM)×(100-% inhibition/% inhibition). Inhibition values <20% and >80% were excluded from the calculation.
Electrophysiological assays were conducted with PatchXpress 7000 hardware and associated software (Molecular Devices Corp). All assay buffers and solutions were identical to those used in conventional whole-cell voltage clamp experiments described above. hSCN9A cells were grown as above to 50%-80% confluency and harvested by trypsinization. Trypsinized cells were washed and resuspended in extracellular buffer at a concentration of 1×10^6 cells/ml. The onboard liquid handling facility of the PatchXpress was used for dispensing cells and application of test compounds.

Data set [2] can be described thus: Aqueous solubility, shake-flask method. The format is physicochemical. Particulars: aqueous buffer, thermodynamic from solid. The protocol: Aqueous solubility data were generated via a “shake-flask” method where an excess of compound was added to a buffer (typically phosphate buffered saline at pH 7.4) and shaken for a period of 18 hours at room temperature. After this time any excess solid was removed by double centrifugation to obtain a saturated aqueous solution. The amount of compound solubilised was quantified by HPLC-UV or LC-MS against a standard calibration curve.
The solubility data generated are set out below. Where a greater than figure is quoted, all available compound was solubilised and saturation was not achieved in the conditions employed.

Where [3] appears, read: pH 7.5, shaken 18 hours at room temperature.
[4] abbreviates: pH 7.4, shaken 18 hours at room temperature.

Molecules are shown by their SMILES. In brackets after ≈: the same amount, converted by molar mass. Counter-ions that a name gives are not always drawn. Bounds are passed on as bounds.

A word on the solubility: it is how much of the substance goes into solution per volume. Usually inhibition stands for the relative decrease from the control value, in per cent.

T1 sequence (Q15858 whole entry): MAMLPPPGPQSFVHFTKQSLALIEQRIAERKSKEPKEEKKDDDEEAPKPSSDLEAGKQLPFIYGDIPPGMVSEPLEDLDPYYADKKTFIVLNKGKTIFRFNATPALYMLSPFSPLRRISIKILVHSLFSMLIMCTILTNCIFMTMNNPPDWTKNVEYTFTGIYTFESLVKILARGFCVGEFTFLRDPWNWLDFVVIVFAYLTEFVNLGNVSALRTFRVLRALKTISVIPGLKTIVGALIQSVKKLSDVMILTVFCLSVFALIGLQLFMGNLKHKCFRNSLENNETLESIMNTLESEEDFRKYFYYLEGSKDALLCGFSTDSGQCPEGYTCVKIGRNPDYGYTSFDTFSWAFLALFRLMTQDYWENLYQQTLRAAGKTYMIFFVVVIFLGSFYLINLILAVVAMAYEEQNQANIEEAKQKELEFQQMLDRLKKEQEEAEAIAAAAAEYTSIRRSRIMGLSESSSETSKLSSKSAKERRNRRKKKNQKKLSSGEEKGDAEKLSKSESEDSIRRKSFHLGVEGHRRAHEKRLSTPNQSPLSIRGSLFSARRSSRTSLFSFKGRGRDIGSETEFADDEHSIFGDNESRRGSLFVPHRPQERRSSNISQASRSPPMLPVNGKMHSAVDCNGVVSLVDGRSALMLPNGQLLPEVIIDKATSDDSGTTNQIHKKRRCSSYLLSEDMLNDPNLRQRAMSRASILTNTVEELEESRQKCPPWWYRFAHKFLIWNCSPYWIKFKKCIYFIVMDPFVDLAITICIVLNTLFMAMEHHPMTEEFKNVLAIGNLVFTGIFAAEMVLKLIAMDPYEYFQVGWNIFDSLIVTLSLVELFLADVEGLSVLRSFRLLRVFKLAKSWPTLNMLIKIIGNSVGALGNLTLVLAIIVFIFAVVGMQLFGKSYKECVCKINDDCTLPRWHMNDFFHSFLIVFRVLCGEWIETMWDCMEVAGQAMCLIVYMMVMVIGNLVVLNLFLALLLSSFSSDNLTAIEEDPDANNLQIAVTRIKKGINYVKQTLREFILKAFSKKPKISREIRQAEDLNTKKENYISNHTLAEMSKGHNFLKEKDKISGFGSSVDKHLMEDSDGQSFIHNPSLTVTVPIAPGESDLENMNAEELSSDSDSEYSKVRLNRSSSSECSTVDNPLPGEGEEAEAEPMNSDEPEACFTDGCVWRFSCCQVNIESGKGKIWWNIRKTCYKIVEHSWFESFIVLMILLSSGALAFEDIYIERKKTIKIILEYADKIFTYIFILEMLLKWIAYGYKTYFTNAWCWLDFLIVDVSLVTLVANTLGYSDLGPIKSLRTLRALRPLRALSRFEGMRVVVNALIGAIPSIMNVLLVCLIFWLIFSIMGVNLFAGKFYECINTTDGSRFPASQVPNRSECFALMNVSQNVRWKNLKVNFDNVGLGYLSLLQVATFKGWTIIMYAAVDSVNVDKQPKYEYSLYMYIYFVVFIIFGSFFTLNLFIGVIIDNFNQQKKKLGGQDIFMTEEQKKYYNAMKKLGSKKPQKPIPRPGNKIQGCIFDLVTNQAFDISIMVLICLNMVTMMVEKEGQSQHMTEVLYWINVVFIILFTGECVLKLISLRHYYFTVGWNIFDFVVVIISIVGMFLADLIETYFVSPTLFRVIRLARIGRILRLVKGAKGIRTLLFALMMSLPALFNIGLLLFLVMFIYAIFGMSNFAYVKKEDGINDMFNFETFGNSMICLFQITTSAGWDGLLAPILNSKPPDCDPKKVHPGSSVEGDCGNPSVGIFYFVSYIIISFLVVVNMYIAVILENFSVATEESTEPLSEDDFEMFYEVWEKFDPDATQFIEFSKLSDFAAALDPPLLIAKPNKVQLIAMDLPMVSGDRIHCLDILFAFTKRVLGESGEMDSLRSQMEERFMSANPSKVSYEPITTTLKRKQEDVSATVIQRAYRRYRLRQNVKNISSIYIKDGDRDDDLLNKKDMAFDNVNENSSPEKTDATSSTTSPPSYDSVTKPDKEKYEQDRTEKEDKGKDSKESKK

Take `O=S(=O)(Nc1nncs1)c1cc(Cl)c(Oc2ccc(-c3cccc(C(F)(F)F)c3)cc2-c2ccnc(CNCCC3CCNCC3)c2)cc1F` [Example 6, 5-Chloro-2-fluoro-4-{[3-(2-{[(2-piperidin-4-ylethyl)amino]methyl}pyridin-4-yl)-3′-(trifluoromethyl)biphenyl-4-yl]oxy}-N-1,3,4-thiadiazol-2-ylbenzenesulfonamide bis-formate salt]: the IC50 in data set [1] is 2.1 nM. The solubility at 18 h in data set [2] (pH 5.0, shaken 18 hours at room temperature) was more than 2300 µg/mL; in data set [2] (setting [3]), less than 500 µg/mL.
Take `NCc1cc(-c2cc(-c3cccc(C(F)(F)F)c3)ccc2Oc2cc(F)c(S(=O)(=O)Nc3nncs3)cc2Cl)ccn1` [Example 7, 4-({3-[2-(Aminomethyl)pyridin-4-yl]-3′-(trifluoromethyl)biphenyl-4-yl}oxy)-5-chloro-2-fluoro-N-1,3,4-thiadiazol-2-ylbenzenesulfonamide bis-formate salt]: the IC50 in data set [1] is 1.5 nM. The solubility at 18 h in data set [2] (pH 7.2, shaken 18 hours at room temperature) turned out to be 0.5 µg/mL.
As to `COCCOCCOCCOCCOCCOCCOCCOCCOCCOCCOCCOCCNCc1cc(-c2cc(-c3cccc(C(F)(F)F)c3)ccc2Oc2ccc(S(=O)(=O)Nc3ncns3)cc2C#N)ccn1` [Example 12, 3-cyano-4-({3-[2-(2,5,8,11,14,17,20,23,26,29,32,35-dodecaoxa-38-azanonatriacontan-39-yl)pyridin-4-yl]-3′-(trifluoromethyl)biphenyl-4-yl}oxy)-N-(1,2,4-thiadiazol-5-yl)benzenesulfonamide], in data set [1], the IC50 was 2.3 nM. The solubility at 18 h in data set [2] (setting [3]) worked out at 612 µg/mL (≈ 532 µM).
For `COCCOCCOCCOCCNCc1cc(-c2cc(-c3cccc(C(F)(F)F)c3)ccc2Oc2ccc(S(=O)(=O)Nc3ncns3)cc2C#N)ccn1` [Example 15, 4-((3-(2-(5,8,11,14-tetraoxa-2-azapentadecyl)pyridin-4-yl)-3′-(trifluoromethyl)-[1,1′-biphenyl]-4-yl)oxy)-3-cyano-N-(1,2,4-thiadiazol-5-yl)benzenesulfonamide] the same measures were 1 nM and 110 µg/mL (≈ 138 µM).
Turning to `COCCOCCOCCOCCOCCOCCOCCOCCOCCOCCOCCOCCC(=O)N1CCC(CCNCc2cc(-c3cc(-c4cccc(C(F)(F)F)c4)ccc3Oc3ccc(S(=O)(=O)Nc4ncns4)cc3C#N)ccn2)CC1` [Example 17, 4-((3-(2-(((2-(1-(2,5,8,11,14,17,20,23,26,29,32,35-dodecaoxaoctatriacontan-38-oyl)piperidin-4-yl)ethyl)amino)methyl)pyridin-4-yl)-3′-(trifluoromethyl)-[1,1′-biphenyl]-4-yl)oxy)-3-cyano-N-(1,2,4-thiadiazol-5-yl)benzenesulfonamide], the inhibition at 0.01 µM in data set [1] (HEK293, Nav1.7, PatchXpress, 10 nM, read-out: % inhibition at 10 nM dose) came to 87.4%. Moreover, in data set [1], the IC50 was less than 10 nM. This compound came in with a solubility at 18 h in data set [2] (setting [4]) of more than 2300 µg/mL.
Regarding `N#Cc1cc(S(=O)(=O)Nc2ncns2)ccc1Oc1ccc(-c2cccc(C(F)(F)F)c2)cc1-c1ccnc(CNCCC2CCNCC2)c1` [Example 18b, 3-Cyano-4-{[3-(2-{[(2-piperidin-4-ylethyl)amino]methyl}pyridin-4-yl)-3′-(trifluoromethyl)biphenyl-4-yl]oxy}-N-1,2,4-thiadiazol-5-ylbenzenesulfonamide trihydrochloride salt], the solubility at 18 h in data set [2] (setting [4]) was more than 10000 µg/mL.
For the compound `COCCOCCOCCOCCOCCOCCOCCOCCOCCOCCOCCOCCC(=O)NCc1cc(-c2cc(-c3cccc(C(F)(F)F)c3)ccc2Oc2ccc(S(=O)(=O)Nc3ncns3)cc2C#N)ccn1` [Example 19, N-((4-(4-(4-(N-(1,2,4-thiadiazol-5-yl)sulfamoyl)-2-cyanophenoxy)-3′-(trifluoromethyl)-[1,1′-biphenyl]-3-yl)pyridin-2-yl)methyl)-2,5,8,11,14,17,20,23,26,29,32,35-dodecaoxaoctatriacontan-38-amide], the IC50 in data set [1] is 17.5 nM. In data set [2] (setting [3]), this compound displayed a solubility at 18 h of more than 3 µg/mL.
For `COCCOCCOCCOCCO[C@@H]1CCN(Cc2cc(-c3cc(-c4cccc(C(F)(F)F)c4)ccc3Oc3ccc(S(=O)(=O)Nc4ncns4)cc3C#N)ccn2)C1` [Example 21, (R)-4-((3-(2-((3-((2,5,8,11-tetraoxatridecan-13-yl)oxy)pyrrolidin-1-yl)methyl)pyridin-4-yl)-3′-(trifluoromethyl)-[1,1′-biphenyl]-4-yl)oxy)-3-cyano-N-(1,2,4-thiadiazol-5-yl)benzenesulfonamide trifluoroacetate salt] the same measures were 7.9 nM and 56 µg/mL.
On the same counts, the results for `N#Cc1cc(S(=O)(=O)Nc2ncns2)ccc1Oc1ccc(-c2cccc(C(F)(F)F)c2)cc1-c1ccnc(CN)c1` [Example 26, 4-({3-[2-(Aminomethyl)pyridin-4-yl]-3′-(trifluoromethyl)biphenyl-4-yl}oxy)-3-cyano-N-1,2,4-thiadiazol-5-ylbenzenesulfonamide bis-formate salt] are 0.5 nM and 3 µg/mL.
On to `COCCOCCOCCOCCOCCOCCOCCOCCOCCOCCOCCOCCC(=O)N1CCC(CCNCc2cc(-c3cc(-c4cccc(C(F)(F)F)c4)ccc3Oc3cc(F)c(S(=O)(=O)Nc4cscn4)cc3Cl)ccn2)CC1` [Example 30, 5-chloro-2-fluoro-4-{[3-{2-[({2-[1-(38-oxo-2,5,8,11,14,17,20,23,26,29,32,35-dodecaoxaoctatriacontan-38-yl)piperidin-4-yl]ethyl}amino)methyl]pyridin-4-yl}-3′-(trifluoromethyl)biphenyl-4-yl]oxy}-N-(1,3-thiazol-4-yl)benzenesulfonamide hydrochloride salt], for which the IC50 in data set [1] is 23.9 nM.
Still for that read-out and setting: under `COCCOCCOCCOCCOCCOCCOCCOCCOCCOCCOCCOCCC(=O)N1CCC(CCNCc2cccc(-c3cc(-c4ccccc4)ccc3Oc3ccc(S(=O)(=O)Nc4ncns4)cc3C#N)c2)CC1` [Example 31, 3-cyano-4-({3″-[({2-[1-(38-oxo-2,5,8,11,14,17,20,23,26,29,32,35-dodecaoxaoctatriacontan-38-yl)piperidin-4-yl]ethyl}amino)methyl]-1,1′:3′,1″-terphenyl-4′-yl}oxy)-N-(1,2,4-thiadiazol-5-yl)benzenesulfonamide] stands 9.8 nM.
The same measure, in the same setting: under `COCCOCCOCCOCCOCCOCCOCCOCCOCCOCCOCCOCCC(=O)N1CCN(c2cc(-c3cc(-c4ccc(C(F)(F)F)cc4)ccc3Oc3cc(F)c(S(=O)(=O)Nc4nncs4)cc3Cl)ccn2)CC1` [Example 32, 5-chloro-2-fluoro-4-{[3-{2-[4-(38-oxo-2,5,8,11,14,17,20,23,26,29,32,35-dodecaoxaoctatriacontan-38-yl)piperazin-1-yl]pyridin-4-yl}-4′-(trifluoromethyl)biphenyl-4-yl]oxy}-N-(1,3,4-thiadiazol-2-yl)benzenesulfonamide] stands 16 nM; under `COCCOCCOCCOCCOCCOCCOCCOCCOCCOCCOCCOCCC(=O)N1CCC(CCNCc2cc(-c3cc(-c4cccc(C(F)(F)F)c4)ccc3Oc3cc(F)c(S(=O)(=O)Nc4nncs4)cc3Cl)ccn2)CC1` [Example 33, 5-chloro-2-fluoro-4-{[3-{2-[({2-[1-(38-oxo-2,5,8,11,14,17,20,23,26,29,32,35-dodecaoxaoctatriacontan-38-yl)piperidin-4-yl]ethyl}amino)methyl]pyridin-4-yl}-3′-(trifluoromethyl)biphenyl-4-yl]oxy}-N-(1,3,4-thiadiazol-2-yl)benzenesulfonamide formate salt], 1.7 nM.

These data come from US20170275275A1, “BENZENESULFONAMIDES USEFUL AS SODIUM CHANNEL INHIBITORS” (PFIZER INC., priority 2014, published 2017).
